Reference: patent EP4806443A1, “ANTICANCER AGENT KIT” (Nihon Trim Co., Ltd., priority 2023, dated 2025)

Legend:
Format in all cases: cell-based, Human
[1] = system: HCT116 cells expressing the GFP-LC3-RFP probe; test: Autophagic activity based on GFP/RFP ratio (flow cytometry), HCT116; settings: fluorouracil 1 or 10 µM, 24 hours (FIG. 25)
Procedure: (§1) Then, the cells were detached and suspended in the same manner as described in the section (2-3), and the fluorescence intensities of GFP and RFP were analyzed by flow cytometry. The autophagic activity was quantitatively analyzed by determining the GFP/RFP ratio.

[2] = system: HeLa cells in which ATG7 (autophagy-related gene) was knocked out (ATG7 KO); test: Cell growth inhibitory effect (Cell Counting Kit-8), HeLa ATG7 KO; settings: 24 hours
Procedure: The results are shown in FIGS. 8 (ATG7 WT) and 9 (ATG7 KO).
FIGS. 20 and 21 show the results.
In FIGS. 20 and 21, HW represents DMEM (produced hydrogen water medium) containing produced hydrogen water with a dissolved hydrogen concentration of 0 ppm to 4 ppm, and HW + DOX represents the DMEM (produced hydrogen water medium) to which 0.5 µM doxorubicin was added.
The results are shown in FIGS. 26 (ATG7 WT) and 27 (ATG7 KO).

[3] = system: HeLa cells expressing a GFP-LC3-RFP-LC3ΔG probe; test: Autophagic activity based on GFP/RFP ratio (flow cytometry), HeLa
Procedure: Then, the cells were detached and suspended, and the fluorescence intensities of GFP and RFP were analyzed by flow cytometry. The autophagic activity was quantitatively analyzed by determining the GFP/RFP ratio.
A1-containing filtered-water medium) containing 200 nM Baf.
The GFP-LC3-RFP-LC3ΔG probe (or a GFP-LC3-RFP probe described later) is described in, for example, the following paper. The GFP-LC3-RFP-LC3ΔG probe (or GFP-LC3-RFP probe) is cleaved by ATG4, and the same number of GFP-LC3 and RFP-LC3ΔG (or RFP) are produced in the cytoplasm. GFP-LC3 is localized in the autophagosomes, and then quenched and degraded in the autolysosomes. RFP-LC3ΔG (or RFP) remains in the cytoplasm and serves as an internal control reflecting the amount of GFP-LC3. The GFP/RFP ratio is obtained by quantifying the cumulative amount of degradation of GFP-LC3 by autophagy. A decrease in the GFP/RFP ratio indicates autophagy activation. An increase in the GFP/RFP ratio indicates autophagy inhibition. […]
as §1

Caco-2 cells = test: Cell growth inhibitory effect (Cell Counting Kit-8), Caco-2; settings: doxorubicin 1, 2, or 4 µM in serum-free medium (autophagy activating conditions), 24 hours (FIG. 12)
Procedure: FIGS. 12 to 15 show the results.
In FIG. 12, DOX + serum free represents DMEM with no serum (serum-free medium) to which doxorubicin was added at a predetermined concentration (1, 2, or 4 µM), DOX represents serum-containing DMEM with doxorubicin added at a predetermined concentration, and DOX + Baf. represents a medium (Baf. A1-containing medium) containing 200 nM Bafilomycin A1 (Baf. A1) dissolved in serum-containing DMEM, to which doxorubicin was added at the predetermined concentration.
In FIG. 15, FW (Medium + Baf. A1) represents a medium (Baf. A1-containing filtered-water medium) containing 200 nM Baf.

[4] = system: HeLa cells in which ATG7 was knocked out (ATG7 KO); test: Apoptosis induction (Cell Death Detection […]), HeLa ATG7 KO; settings: doxorubicin 1 or 2 µM, 24 hours; ATG7 KO compared with ATG7 WT (FIG. 7)
Procedure: Apoptosis induction was assessed using Cell Death Detection [sequence] (Roche Diagnostics, Basel, Switzerland) according to the manual. HeLa cells (ATG7 WT) or HeLa cells in which ATG7 was knocked out (ATG7 KO) were seeded into a 12-well plate at 1.0 × 10^5 cells/well and cultured (precultured) in DMEM under the conditions of 37°C and 5% CO2 for 24 hours. After the preculture, the medium was exchanged with DMEM supplemented with an anticancer agent containing doxorubicin at a predetermined concentration (1 or 2 µM), and the cells were cultured for 24 hours. The cells were then lysed with a lysis buffer, and the lysate was added to each well of the ELISA plate, incubated with an immunological reagent buffer containing anti-histone biotin and anti-DNA POD for 2 hours, and washed with an incubation buffer. Then, the resultant was reacted with 100 µL of an ABTS substrate buffer, and the absorbance was measured at 405 nm and 490 nm.
Apoptosis induction was assessed using Cell Death Detection [sequence] (Roche Diagnostics, Basel, Switzerland) according to the manual. […] Then, the resultant was reacted with 100 µL of an ABTS substrate buffer, and the absorbance was measured at 405 nm and 490 nm.

**Q.** For `O=c1[nH]cc(F)c(=O)[nH]1` [fluorouracil], which GFP/RFP ratio [1] is on record?
**A.** The GFP/RFP ratio was “decreased as the fluorouracil concentration increased”.

**Q.** Which “anticancer effect (cell growth inhibitory effect)” value ([2]; paclitaxel 1, 10, or 50 nM, ATG7 KO compared with ATG7 WT (FIG. 24)) does the source give for `CC(=O)O[C@H]1C(=O)[C@@]2(C)[C@H]([C@H](OC(=O)c3ccccc3)[C@]3(O)C[C@H](OC(=O)[C@H](O)[C@@H](NC(=O)c4ccccc4)c4ccccc4)C(C)=C1C3(C)C)[C@]1(OC(C)=O)CO[C@@H]1C[C@@H]2O` [paclitaxel] here?
**A.** Its value is “enhanced”.

**Q.** What about the GFP/RFP ratio ([3]; paclitaxel 1, 5, or 10 nM, 24 hours (FIG. 23)) of the same compound?
**A.** The GFP/RFP ratio was “decreased as the paclitaxel concentration increased”.

**Q.** What does the source list for `COc1cccc2c1C(=O)c1c(O)c3c(c(O)c1C2=O)C[C@@](O)(C(=O)CO)C[C@@H]3O[C@H]1C[C@H](N)[C@H](O)[C@H](C)O1` [doxorubicin]?
**A.** cell growth inhibitory effect ([2]; doxorubicin 1, 2, or 4 µM, ATG7 KO compared with ATG7 WT (FIG. 6)): enhanced; cell growth inhibitory effect of doxorubicin (Caco-2 cells): rather reduced; GFP/RFP ratio ([3]; doxorubicin 1, 2, or 4 µM, 4 hours, a decrease indicates autophagy activation (FIG. 5)): decreased as the doxorubicin concentration increased; apoptosis induction [4]: enhanced
